Patent US7595398B2, “N-(5-membered aromatic ring)-amido anti-viral compounds” (SmithKline Beecham Corporation, priority 2005, dated 2009)

system: HCV replicon I389luc-ubi-neo/NS3-3′/ET in ET (Huh-lucubineo-ET) cells; screening for HCV RNA dependent RNA polymerase; experiment: Replicon Assay (luciferase, ET cell line Huh-lucubineo-ET); type: cell-based; details: Hepatitis C virus; inhibition of replication relative to no compound control; test concentration of 10 μM according to the fitted equation; luciferase 48-72 hours
In short: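 Huh-derived ET cells stably carrying an I389luc-ubi-neo/NS3-3′/ET HCV replicon with a luciferase-ubiquitin-neomycin phosphotransferase fusion and adaptive NS3-5B mutations were cultured in DMEM with 10% fetal calf serum and 250 μg/mL G418. Cells were seeded at 0.5-1.0×10^4 cells/well in 96 well plates and given compound after 24 hrs. Luciferase was read 48-72 hours later with Bright-Glo reagents, and replication inhibition was expressed relative to untreated controls.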

| SMILES | inhibition at 10 µM |
| --- | --- |
| Cc1cc(-c2csc(NC(=O)[C@@H]3CCCN3C(=O)OCc3ccccc3)n2)cc(C)c1C [Compound 5062, 2-[4-(3,4,5-Trimethyl-phenyl)-thiazol-2-ylcarbamoyl]-pyrrolidine-1-carboxylic acid benzyl ester] | 94.7% |
| O=C(Nc1nc(-c2ccc(C(=O)N3CCN(CCO)CC3)cc2)cs1)[C@@H]1CCCN1C(=O)OCc1ccccc1 [Compound 5377, 2-(4-{4-[4-(2-Hydroxy-ethyl)-piperazine-1-carbonyl]-phenyl}-thiazol-2-ylcarbamoyl)-pyrrolidine-1-carboxylic acid benzyl ester] | 5.71% |
| Cc1ccc(Cc2cnc(NC(=O)[C@@H]3CCCN3C(=O)OCc3ccccc3)s2)cc1 [Compound 5040, 2-[5-(4-Methyl-benzyl)-thiazol-2-ylcarbamoyl]-pyrrolidine-1-carboxylic acid benzyl ester] | 22.5% |
| O=C(NCCCN1CCOCC1)c1ccc(-c2csc(NC(=O)[C@@H]3CCCN3C(=O)OCc3ccccc3)n2)cc1 [Compound 5324, 2-{4-[4-(3-Morpholin-4-yl-propylcarbamoyl)-phenyl]-thiazol-2-ylcarbamoyl}-pyrrolidine-1-carboxylic acid benzyl ester] | 100% |
| CCNC(=O)c1ccc(-c2csc(NC(=O)[C@@H]3CCCN3C(=O)OCc3ccccc3)n2)cc1 [Compound 5092, 2-[4-(4-Ethylcarbamoyl-phenyl)-thiazol-2-ylcarbamoyl]-pyrrolidine-1-carboxylic acid benzyl ester] | 100% |
| CC(C)CC1CC(C)(c2csc(NC(=O)[C@@H]3CCCN3C(=O)OCc3ccccc3)n2)OC1=O (stereo in doubt) [Compound 5009, 2-[4-(4-Isobutyl-2-methyl-5-oxo-tetrahydro-furan-2-yl)-thiazol-2-ylcarbamoyl]-pyrrolidine-1-carboxylic acid benzyl ester] | 63.4% |
| O=C(NC1CC1)c1ccc(-c2csc(NC(=O)[C@@H]3CCCN3C(=O)OCc3ccc(F)cc3)n2)cc1 [Compound 5361, 2-[4-(4-Cyclopropylcarbamoyl-phenyl)-thiazol-2-ylcarbamoyl]-pyrrolidine-1-carboxylic acid 4-fluoro-benzyl ester] | 98.4% |
| O=C(NC1CC1)c1ccc(-c2csc(NC(=O)C3CCCC3C(=O)NCc3ccccc3)n2)cc1 (racemic) [Compound 5382, Cyclopentane-1,2-dicarboxylic acid 1-benzylamide 2-{[4-(4-cyclopropylcarbamoyl-phenyl)-thiazol-2-yl]-amide}] | 100% |
| O=C(Nc1ccc(-c2csc(NC(=O)C3CCCN3C(=O)OCc3ccccc3)n2)cc1)c1ccccc1 (stereo not drawn) [Compound 5037, 2-[4-(4-Benzoylamino-phenyl)-thiazol-2-ylcarbamoyl]-pyrrolidine-1-carboxylic acid benzyl ester] | 100% |
| O=C(NC1CC1)c1ccc(-c2csc(NC(=O)C3CCC[C@H]3C(=O)NCc3ccccc3)n2)cc1 (mixture of isomers) [Compound 5340, Cyclopentane-1,2-dicarboxylic acid 1-benzylamide 2-{[4-(4-cyclopropylcarbamoyl-phenyl)-thiazol-2-yl]-amide}] | 100% |
| CCCCC(=O)Nc1ccc(-c2csc(NC(=O)[C@@H]3CCCN3C(=O)OCc3ccccc3)n2)cc1 [Compound 5089, 2-[4-(4-Pentanoylamino-phenyl)-thiazol-2-ylcarbamoyl]-pyrrolidine-1-carboxylic acid benzyl ester] | 100% |
| Nc1ccc(-c2csc(NC(=O)C3CCCN3C(=O)OCc3ccccc3)n2)cc1 (stereo not drawn) [Compound 5050, 2-[4-(4-Amino-phenyl)-thiazol-2-ylcarbamoyl]-pyrrolidine-1-carboxylic acid benzyl ester] | 99.8% |
| O=C(Nc1cc(-c2ccccc2)nn1-c1ccccc1)[C@@H]1CCCN1C(=O)OCc1ccccc1 [Compound 5065, 2-(2,5-Diphenyl-2H-pyrazol-3-ylcarbamoyl)-pyrrolidine-1-carboxylic acid benzyl ester] | 27.2% |
| O=C(NC1CC1)c1ccc(-c2csc(NC(=O)C3CCCN3C(=O)CCc3ccccc3)n2)cc1 (stereo not drawn) [Compound 5358, 1-(3-Phenyl-propionyl)-pyrrolidine-2-carboxylic acid [4-(4-cyclopropylcarbamoyl-phenyl)-thiazol-2-yl]-amide] | 84.8% |
| COc1ccc(-c2csc(NC(=O)[C@@H]3CCCN3C(=O)OCc3ccccc3)n2)cc1Br [Compound 5016, 2-[4-(3-Bromo-4-methoxy-phenyl)-thiazol-2-ylcarbamoyl]-pyrrolidine-1-carboxylic acid benzyl ester] | 100% |
| O=C(Nc1ccc(-c2cnc(NC(=O)[C@@H]3CCCN3C(=O)OCc3ccccc3)s2)cc1)C1CCCC1 [Compound 5110, 2-{5-[4-(Cyclopentanecarbonyl-amino)-phenyl]-thiazol-2-ylcarbamoyl}-pyrrolidine-1-carboxylic acid benzyl ester] | 89.6% |
| O=C(NC1CCCNC1)c1ccc(-c2csc(NC(=O)C3CCCN3C(=O)OCc3ccccc3)n2)cc1 (stereo not drawn) [Compound 5343, 2-{4-[4-(Piperidin-3-ylcarbamoyl)-phenyl]-thiazol-2-ylcarbamoyl}-pyrrolidine-1-carboxylic acid benzyl ester] | 100% |

system: not given; experiment: not given; details: patients treated at currently recommended doses; cited from earlier work

| SMILES | patients with significant hemolysis |
| --- | --- |
| NC(=O)c1ncn([C@@H]2O[C@H](CO)[C@@H](O)[C@H]2O)n1 [Ribavirin] | 10-20% |
